# According to ChEMBL document CHEMBL3608273, “Discovery of Biaryl Amides as Potent, Orally Bioavailable, and CNS Penetrant RORγt Inhibitors” (ACS Med Chem Lett, 2015):
# Experiments:
# [1] = Inhibition of Th17 cell differentiation in mouse CD4-positive T cells incubated for 3 days by ELISA method; conditions: Th17, 72 h, read-out: pIC50 (converted)
# [2] = AUC (0 to 4 hrs) in C57BL/6 mouse brain at 2 mg/kg, ip by LC/MS/MS method; assay type: ADME, organism-based; set-up: time < 4 hr, dose 2 mg/kg, route intraperitoneal
# [3] = AUC (0 to 4 hrs) in C57BL/6 mouse blood at 2 mg/kg, ip by LC/MS/MS method; assay type: ADME, organism-based; set-up: time < 4 hr, dose 2 mg/kg, route intraperitoneal
# Mus musculus [4] = assay: Dose normalized AUC (0 to infinity) in C57BL/6 mouse at 10 mg/kg, po by LC/MS/MS method; assay type: ADME, organism-based; conditions: in vivo
# Mus musculus [5] = species: Mus musculus; conditions: C57BL/6 (B6), 1 to 10 mg/kg
# Description: Inhibition of disease severity in C57BL/6 (B6) mouse model of experimental autoimmune encephalomyelitis at 1 to 10 mg/kg, po qd dosed starting from day of immunization
# [6] = target: T1, Nuclear receptor ROR-gamma (Homo sapiens, UniProt P51449); assay: Inhibition of RORgammat (unknown origin) assessed as inhibition of agonist-induced response by FRET assay
# T1 sequence (P51449 whole entry): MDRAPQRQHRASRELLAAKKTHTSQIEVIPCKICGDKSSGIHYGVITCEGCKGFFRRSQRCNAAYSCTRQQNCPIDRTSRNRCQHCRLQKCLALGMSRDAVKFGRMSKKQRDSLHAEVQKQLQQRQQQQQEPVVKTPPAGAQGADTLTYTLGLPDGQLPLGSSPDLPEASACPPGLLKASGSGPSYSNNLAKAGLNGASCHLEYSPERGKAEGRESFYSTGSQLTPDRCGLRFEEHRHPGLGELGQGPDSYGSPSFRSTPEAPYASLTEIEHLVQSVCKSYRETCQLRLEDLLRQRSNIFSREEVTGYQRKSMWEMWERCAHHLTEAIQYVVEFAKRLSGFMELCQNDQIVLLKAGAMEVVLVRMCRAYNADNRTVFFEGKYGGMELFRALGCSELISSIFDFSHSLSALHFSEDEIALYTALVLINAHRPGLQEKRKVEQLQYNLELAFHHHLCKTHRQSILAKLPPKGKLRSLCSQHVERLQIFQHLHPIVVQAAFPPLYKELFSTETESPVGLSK
# [7] = Half life in C57BL/6 mouse at 1 mg/kg, ip by LC/MS/MS method; assay type: ADME, organism-based; conditions: in vivo
# [8] = Blood clearance in C57BL/6 mouse at 1 mg/kg, ip by LC/MS/MS method; assay type: ADME, organism-based
# Mus musculus [9] = assay: Volume of distribution at steady state in C57BL/6 mouse at 1 mg/kg, ip by LC/MS/MS method; assay type: ADME, organism-based; conditions: in vivo
# [10] = Cmax in C57BL/6 mouse at 2 mg/kg, po by LC/MS/MS method; assay type: ADME, organism-based; set-up: dose 2 mg/kg, route oral; conditions: in vivo
# Mus musculus [11] = assay: Dose normalized AUC (0 to infinity) in C57BL/6 mouse at 2 mg/kg, po by LC/MS/MS method; assay type: ADME, organism-based; conditions: in vivo
# [12] = Oral bioavailability in C57BL/6 mouse at 2 mg/kg by LC/MS/MS method; assay type: ADME, organism-based; conditions: in vivo
# [13] = Ratio of AUC (0 to 4 hrs) in brain to blood of C57BL/6 mouse at 2 mg/kg, ip by LC/MS/MS method; assay type: ADME, organism-based
SMILES,IC50 [1] [nM],AUC(0-t) at 4 h [2] [ng·h/mL],AUC(0-t) at 4 h [3] [ng·h/mL],other results
CCS(=O)(=O)c1ccc(CC(=O)Nc2ccc(-c3ccccc3)cc2)cc1,> 10000,–,–,–
Cc1cc(NC(=O)Cc2ccc(S(C)(=O)=O)cc2)ccc1-c1ccc(Cl)cc1OC(F)(F)F,63.1,3520,2400,AUC/dose (Mus musculus [4]): 4048 ng·h/mL/mg/kg; inhibition (Mus musculus [5]): Dose-dependent effect
CCS(=O)(=O)c1ccc(CC(=O)Nc2ncc(-c3cc(Cl)ccc3Cl)s2)cc1,–,–,–,IC50 [6]: > 25100 nM
CCS(=O)(=O)c1ccc(CC(=O)Nc2ccc(-c3ccccc3CN(C)C)c(Cl)c2)cc1,> 10000,–,–,–
CCS(=O)(=O)c1ccc(CC(=O)Nc2cccc(-c3cc(Cl)ccc3Cl)n2)cc1,–,–,–,IC50 [6]: > 25100 nM
CCS(=O)(=O)c1ccc(CC(=O)Nc2ccc(-c3cccn3C)c(Cl)c2)cc1,> 6310,–,–,–
CCS(=O)(=O)c1ccc(CC(=O)Nc2cc(Cl)c(-c3ccc(F)cc3C#N)c(Cl)c2)cc1,158,76,1380,–
NS(=O)(=O)c1ccc(CC(=O)Nc2cc(Cl)c(-c3ccccc3OC(F)(F)F)c(Cl)c2)cc1,7.94,388,4880,–
CS(=O)(=O)c1ccc(CC(=O)Nc2ccc(-c3ccc(Cl)cc3OC(F)(F)F)c(F)c2)cc1,50.1,2350,2020,–
CCS(=O)(=O)c1ccc(CC(=O)Nc2cc(Cl)c(-c3ccccc3OC(F)F)c(Cl)c2)cc1,10,462,1180,–
CS(=O)(=O)c1ccc(CC(=O)Nc2ccc(-c3ccc(Cl)cc3OC(F)(F)F)c(Cl)c2)cc1,25.1,1700,1730,–
CCS(=O)(=O)c1ccc(CC(=O)Nc2nc(-c3cc(Cl)ccc3Cl)cs2)cc1,–,–,–,Kp [13]: 1.5
CCS(=O)(=O)c1ccc(CC(=O)Nc2cc(Cl)c(-c3ccccc3C#N)c(Cl)c2)cc1,79.4,200,1930,–
CCS(=O)(=O)c1ccc(CC(=O)Nc2nnc(-c3cc(Cl)ccc3Cl)s2)cc1,–,–,–,IC50 [6]: > 25100 nM

# The next lines start with results.
IC50 [1] [nM],AUC(0-t) at 4 h [2] [ng·h/mL],AUC(0-t) at 4 h [3] [ng·h/mL],SMILES,other results
63.1,–,–,CCS(=O)(=O)c1ccc(CC(=O)Nc2ccc(-c3ccccc3OC(F)(F)F)c(-c3ccno3)c2)cc1,–
2510,–,–,CCS(=O)(=O)c1ccc(CC(=O)Nc2ccc(-c3ccccc3OC(F)(F)F)c(C(C)=O)c2)cc1,–
< 3.16,–,–,CCS(=O)(=O)c1ccc(CC(=O)Nc2cc(C)c(-c3ccccc3OC(F)(F)F)c(Cl)c2)cc1,–
126,–,–,CCS(=O)(=O)c1ccc(CC(=O)Nc2ccc(-c3ccccc3OC(F)(F)F)c(C(F)(F)F)c2)cc1,–
1000,–,–,CCS(=O)(=O)c1ccc(CC(=O)Nc2ccc(-c3ccccc3Cl)c(Cl)c2)cc1,–
6310,–,–,CCS(=O)(=O)c1ccc(CC(=O)Nc2ccc(-c3ccccc3)c(Cl)c2)cc1,–
200,–,–,CCS(=O)(=O)c1ccc(CC(=O)Nc2ccc(-c3ccccc3C(F)(F)F)c(Cl)c2)cc1,half-life [7]: 2.2 h; CL/F [8]: 17.6 mL/min/kg; Vdss (Mus musculus [9]): 3.2 L/kg; Cmax [10]: 211 ng/mL; AUC/dose (Mus musculus [11]): 713 ng·h/mL/mg/kg; bioavailability [12]: 75%
–,658,835,CS(=O)(=O)c1ccc(CC(=O)Nc2cc(Cl)c(-c3ccccc3OC(F)(F)F)c(Cl)c2)cc1,half-life [7]: 9.7 h; CL/F [8]: 5.5 mL/min/kg; Vdss (Mus musculus [9]): 4.4 L/kg; Cmax [10]: 214 ng/mL; AUC/dose (Mus musculus [11]): 2465 ng·h/mL/mg/kg; bioavailability [12]: 100%
7940,–,–,CCS(=O)(=O)c1ccc(CC(=O)Nc2ccc(-c3ccccc3OC(F)(F)F)nc2)cc1,–
< 31.6,–,–,CCS(=O)(=O)c1ccc(CC(=O)Nc2ccc(-c3ccccc3OC(F)(F)F)c(-c3cncnc3)c2)cc1,–
31.6,–,–,CCS(=O)(=O)c1ccc(CC(=O)Nc2cc(Cl)c(-c3ccccc3OC(F)(F)F)c(C#N)c2)cc1,–
158,–,–,CCS(=O)(=O)c1ccc(CC(=O)Nc2ccc(-c3ccccc3OC(F)(F)F)cc2)cc1,–
> 5010,–,–,CCS(=O)(=O)c1ccc(CC(=O)Nc2ccc(-c3ncccc3C(F)(F)F)c(Cl)c2)cc1,–
–,946,1220,CCS(=O)(=O)c1ccc(CC(=O)Nc2cc(Cl)c(-c3ccccc3OC(F)(F)F)c(Cl)c2)cc1,–
7.94,1760,881,CCS(=O)(=O)c1ccc(CC(=O)Nc2ccc(-c3ccc(Cl)cc3OC(F)(F)F)c(Cl)c2)cc1,–
79.4,–,–,CCS(=O)(=O)c1ccc(CC(=O)Nc2ccc(-c3ccccc3OC(F)(F)F)c(Cl)c2)cc1,half-life [7]: 4.2 h; CL/F [8]: 11.6 mL/min/kg; Vdss (Mus musculus [9]): 3.8 L/kg; Cmax [10]: 203 ng/mL; AUC/dose (Mus musculus [11]): 1313 ng·h/mL/mg/kg; bioavailability [12]: 102%
25.1,–,–,CCS(=O)(=O)c1ccc(CC(=O)Nc2ccc(-c3ccccc3OC(F)(F)F)c(C)c2)cc1,–
> 10000,–,–,CCS(=O)(=O)c1ccc(CC(=O)Nc2ccc(-c3ccccc3OC(F)(F)F)c(C(=O)O)c2)cc1,–
79.4,–,–,CCS(=O)(=O)c1ccc(CC(=O)Nc2ccc(-c3ccccc3OC(C)C)c(Cl)c2)cc1,–
